For series [1], the system named is AR 1.0 cells. The experiment in a line: Potentiation index for doxorubicin (doxorubicin titration with fixed concentration of compound). Format: cell-based, mouse. The procedure:
The EMT6 mouse mammary carcinoma cell line and the MDR resistant sublime AR 1.0 were cultured in RPMI 1640 medium containing 10% foetal calf serum and 2 mM glutamine at 37° C. in 5% CO2. Cells were passaged between 1 in 200 and 1 in 2000 in the case of the parental cell line and between 1 in 20 and 1 in 200 in the case of the MDR resistant subline, after trypsinisation (0.25% trypsin, 0.2 gl^-1, EDTA).
Cells were cultured for four days with a titration of doxorubicin (0.01 nm-50 μM) in the presence of a fixed concentration of each compound. Proliferation was quantified as described by Skehan et. al, loc cit. The IC50 (concentration required to reduce proliferation to 50% of the untreated controls) for doxorubicin alone and with each compound were derived and used to calculate the potentiation index (PI): [formula]

Series [2] concerns AR 1.0 cells. The experiment in a line: Compound toxicity (proliferation, sulphorhodamine B). The class given is cell-based. The settings on record: Mus musculus, 96 h, read-out: Compound toxicity (IC50).
Series [3] has as its system AR 1.0 cells. The experiment in a line: Potentiation of doxorubicin toxicity (fixed doxorubicin 0.86 μM, proliferation, sulphorhodamine B). The class given is cell-based, mouse. The source says: Compounds of formula (I) were examined for their ability to potentiate the toxicity of doxorubicin in AR 1.0 cells.
The subject of series [4] is AR 1.0 cells. The experiment in a line: Drug accumulation assay (tritiated daunorubicin). The class given is cell-based. The settings on record: Mus musculus; for IC50: read-out: IC50 accumulation. As for the experimental part:
AR 1.0 cells were seeded into 96 well opaque culture plates (Canberra Packard). The assay medium contained a mixture of tritiated Daunorubicin (DNR), a cytotoxic agent, and unlabelled DNR (0.3 μCi/ml; 2 μM). Compounds of formula I were serially diluted in assay medium over a range of concentrations from 5 nM to 100 μM. The cells were incubated at 37° C. for 1 hr before washing and determination of cell associated radioactivity. Results were expressed as % maximum accumulation where 100% accumulation is that observed in the presence of the known RMA verapamil at 100 μM. Where possible an IC50 was determined.

The subject of another series is MDR cells. The settings on record: in vitro and in vivo; Cancer Res., 41, 1967-1972 (1981); cited from earlier work.
Setting [5] is: RMA at 1 μM, doxorubicin, four days.
The mark [6] stands for this setting: compound alone, AR 1.0 cells, four day incubation.
Setting [7] is: with doxorubicin 0.86 μM, four day incubation, 5760 min, read-out: Toxicity with cytotoxic agent (IC50).
The mark [8] stands for this setting: daunorubicin 2 μM, 1 hr at 37° C.

Molecules are shown by their SMILES.

The values below come from patent US5935955A, “Pharmaceutical piperazine compounds” (Xenova Limited, priority 1994, dated 1999).

Regarding `Cn1c(=O)/c(=C/c2ccc(C(=O)N3CCN(c4ncccn4)CC3)cc2)[nH]c(=O)/c1=C/c1ccccc1` [Compound 9022, 1-(4-((3Z,6Z)-6-Benzylidene-1-methyl-2,5-dioxo-3-piperazinylidene)methylbenzoyl)-4-(2-pyrimidyl)piperazine], the Potentiation index in the series with AR 1.0 cells [1] (setting [5]) stood at 5. In addition, the IC50 (as a rule, the concentration that inhibits the measured activity by half) with AR 1.0 cells [2] (setting [6]) came out at 35000 nM; in the series with AR 1.0 cells [3] (setting [7]), 800 nM; with AR 1.0 cells [4] (setting [8]), 7000 nM.
For the compound `Cn1c(=O)/c(=C/c2ccc(C(=O)Nc3ccc(CCN4CCN(c5cccc(C(F)(F)F)c5)CC4)cc3)cc2)[nH]c(=O)/c1=C/c1ccccc1` [Compound 9049, N-(4-(2-(4-(3-Trifluoromethylphenyl)-1-piperazinyl)ethyl)phenyl)-4-((3Z,6Z)-6-benzylidene-1-methyl-2,5-dioxo-3-piperazinylidene)methylbenzamide], in the series on AR 1.0 cells [1] (setting [5]), the Potentiation index stood at 15. In addition, the IC50 in the series on AR 1.0 cells [2] (setting [6]) amounted to 2000 nM. The Emax with AR 1.0 cells [4] (1 h, % maximum accumulation, 100% = verapamil at 100 μM, compound 5 nM to 100 μM, read-out: Max accumulation) is 20%.
Consider `COc1cc2c(cc1OC)CN(CCc1ccc(NC(=O)c3cccc(/C=c4\[nH]c(=O)/c(=C/c5ccccc5)n(C)c4=O)c3)cc1)CC2.Cl` [Compound 9051, N-(4-(2-(6,7-Dimethoxy-1,2,3,4-tetrahydro-2-isoquinolyl)ethyl)phenyl)-3-((3Z,6Z)-6-benzylidene-1-methyl-2,5-dioxo-3-piperazinylidene)methylbenzamide, hydrochloride], for which the Potentiation index with AR 1.0 cells [1] (setting [5]) was found to be 2000. Besides, the figures for the IC50 with AR 1.0 cells [2], with AR 1.0 cells [3] (setting [7]) and in the series on AR 1.0 cells [4] (1 h) were 2000 nM, 10 nM and 150 nM, respectively.
`COc1cc2c(cc1OC)CN(Cc1ccc(NC(=O)c3ccc(/C=c4\[nH]c(=O)/c(=C/c5ccccc5)n(C)c4=O)cc3)cc1)CC2.Cl` [Compound 9064, N-(4-(6,7-Dimethoxy-1,2,3,4-tetrahydro-2-isoquinolyl)methylphenyl)-4-((3Z,6Z)-6-benzylidene-1-methyl-2,5-dioxo-3-piperazinylidene)methylbenzamide, hydrochloride]: the Potentiation index in the series on AR 1.0 cells [1] (setting [5]) came out at 750. Further, the IC50 in the series on AR 1.0 cells [2] (setting [6]) was determined as 2000 nM; in the series with AR 1.0 cells [3] (setting [7]) it was 10 nM; with AR 1.0 cells [4] (setting [8]), 300 nM.
In the case of `Cn1c(=O)/c(=C/c2ccc(C(=O)Nc3ccc(CCN4CCc5ccccc5C4)cc3)cc2)[nH]c(=O)/c1=C/c1ccccc1` [Compound 9065, N-(4-(2-(1,2,3,4-Tetrahydro-2-isoquinolyl)ethyl)phenyl)-4-((3Z,6Z)-6-benzylidene-1-methyl-2,5-dioxo-3-piperazinylidene)methylbenzamide], the Potentiation index in the series with AR 1.0 cells [1] (setting [5]) turned out to be 15. For the same compound, the IC50 in the series with AR 1.0 cells [2] (setting [6]) is 2000 nM; in the series with AR 1.0 cells [4] (setting [8]), 6000 nM.
In the case of `COc1ccc(N2CCN(C(=O)c3ccc(/C=c4\[nH]c(=O)/c(=C/c5ccccc5)n(C)c4=O)cc3)CC2)cc1.Cl` [Compound 9071, 1-(4-((3Z,6Z)-6-Benzylidene-1-methyl-2,5-dioxo-3-piperazinylidene)methylbenzoyl)-4-(4-methoxyphenyl)piperazine, hydrochloride], the Potentiation index with AR 1.0 cells [1] (setting [5]) is 4. Besides, the IC50 with AR 1.0 cells [2] (setting [6]) was found to be 6000 nM; in the series on AR 1.0 cells [3] (setting [7]), 200 nM; in the series on AR 1.0 cells [4] (setting [8]) it was 6000 nM.
With `Cn1c(=O)/c(=C/c2ccc(C(=O)Nc3ccc(CCN4CCC(O)(c5ccc(Cl)cc5)CC4)cc3)cc2)[nH]c(=O)/c1=C/c1ccccc1` [Compound 9079, N-(4-(2-(4-(4-Chlorophenyl) -4-hydroxypiperidino)ethyl)phenyl)-4-((3Z,6Z)-6-benzylidene-1-methyl-2,5-dioxo-3-piperazinylidene)methylbenzamide], the Potentiation index in the series with AR 1.0 cells [1] (setting [5]) came to 3. Also, the IC50 with AR 1.0 cells [2] (setting [6]) came out at 2000 nM; in the series on AR 1.0 cells [3] (ar 1.0 cells, 96 h) it was 1700 nM; in the series with AR 1.0 cells [4] (setting [8]) it was 80000 nM.
With `Cl.Cn1c(=O)/c(=C/c2ccc(C(=O)Nc3ccc(CN4CCN(c5ccccc5)CC4)cc3)cc2)[nH]c(=O)/c1=C/c1ccccc1` [Compound 9104, N-(4-(4-Phenyl-1-piperazinyl)methylphenyl)-4-((3Z,6Z)-6-benzylidene-1-methyl-2,5-dioxo-3-piperazinylidene)methylbenzamide, hydrochloride], the Potentiation index in the series on AR 1.0 cells [1] (setting [5]) was 17. The results for the IC50 in the series on AR 1.0 cells [2] (setting [6]) and with AR 1.0 cells [4] (setting [8]) were 40000 nM and 5000 nM, respectively.
With `COc1cc2c(cc1OC)CN(CCNC(=O)c1cccc(/C=c3\[nH]c(=O)/c(=C/c4ccccc4)n(C)c3=O)c1)CC2` [Compound 9136, N-(2-(6,7-Dimethoxy-1,2,3,4-tetrahydro-2-isoquinolyl)ethyl)-3-((3Z,6Z)-6-benzylidene-1-methyl-2,5-dioxo-3-piperazinylidene)methylbenzamide], the Potentiation index with AR 1.0 cells [1] (setting [5]) came out at 25. Moreover, the IC50 amounted to 13000 nM in the series on AR 1.0 cells [2] (setting [6]), 2000 nM in the series on AR 1.0 cells [3] (setting [7]) and 900 nM with AR 1.0 cells [4] (setting [8]).
Consider `COc1ccc(CCN(C)CCc2ccc(NC(=O)c3cccc(/C=c4\[nH]c(=O)/c(=C/c5ccccc5)n(C)c4=O)c3)cc2)cc1OC` [Compound 9138], for which the Potentiation index in the series on AR 1.0 cells [1] (setting [5]) came out at 333. In addition, the IC50 in the series on AR 1.0 cells [2] (setting [6]) was 8000 nM; with AR 1.0 cells [3] (setting [7]), 1000 nM; in the series on AR 1.0 cells [4] (setting [8]), 800 nM.
With `CN(CCNC(=O)c1cccc(/C=c2\[nH]c(=O)/c(=C/c3ccccc3)n(C)c2=O)c1)CC(c1ccccc1)c1ccccc1` [Compound 9163, N-(2-(2,2-Diphenylethyl)methylaminoethyl)-3-((3Z,6Z)-6-benzylidene-1-methyl-2,5-dioxo-3-piperazinylidene)methylbenzamide], in the series on AR 1.0 cells [1] (setting [5]), the Potentiation index was found to be 6.7. The IC50 in the series with AR 1.0 cells [2] (setting [6]) worked out at 10000 nM; with AR 1.0 cells [3] (setting [7]) it was 500 nM; in the series on AR 1.0 cells [4] (setting [8]) it was 2000 nM.
As to `COc1cc2c(cc1OC)CN(CCc1ccc(COc3ccc(/C=c4\[nH]c(=O)/c(=C/c5ccccc5)n(C)c4=O)cc3)cc1)CC2` [Compound 9176, (3Z,6Z)-6-Benzylidene-3-(4-(4-(2-(6,7-dimethoxy-1,2,3,4-tetrahydro-2-isoquinolyl)ethyl)benzyloxy)benzylidene)-1-methyl-2,5-piperazinedione], in the series on AR 1.0 cells [1] (setting [5]), the Potentiation index was found to be 300.0. The IC50 with AR 1.0 cells [2] (setting [6]) came to 10000 nM; in the series on AR 1.0 cells [3] (setting [7]) it was 200 nM; in the series with AR 1.0 cells [4] (setting [8]), 1000 nM.
The like results for `COc1cc2c(cc1OC)CN(CCc1ccc(COc3cccc(/C=c4\[nH]c(=O)/c(=C/c5ccccc5)n(C)c4=O)c3)cc1)CC2` [Compound 9177, (3Z,6Z)-6-Benzylidene-3-(3-(4-(2-(6,7-dimethoxy-1,2,3,4-tetrahydro-2-isoquinolyl)ethyl)benzyloxy)benzylidene)-1-methyl-2,5-piperazinedione] were, in that order, 75.0, 15000 nM, 500 nM and 1750 nM.
Regarding `COc1cc2c(cc1OC)CN(CCc1ccc(C(=O)Nc3ccc(/C=c4\[nH]c(=O)/c(=C/c5ccccc5)n(C)c4=O)cc3)cc1)CC2` [Compound 9190, N-(4-((3Z,6Z)-6-Benzylidene-1-methyl-2,5-dioxo-3-piperazinylidene)methylphenyl)-4-(2-(6,7-dimethoxy-1,2,3,4-tetrahydro-2-isoquinolyl)ethyl)benzamide], the Potentiation index turned out to be 1.4 in the series with AR 1.0 cells [1] (measured at 0.01 μM), 3.3 in the series on AR 1.0 cells [1] (measured at 0.03 μM), 10.0 with AR 1.0 cells [1] (measured at 0.1 μM) and 75.0 with AR 1.0 cells [1] (measured at 0.3 μM). Also, the IC50 with AR 1.0 cells [2] (setting [6]) was determined as 15000 nM; in the series on AR 1.0 cells [3] (setting [7]) it was 50 nM; in the series with AR 1.0 cells [4] (setting [8]), 350 nM.
As for `COc1ccc(CCN(C)CCCC(C#N)(c2ccc(OC)c(OC)c2)C(C)C)cc1OC` (stereo not drawn) [Verapamil], the “sensitisation of MDR cells to Vinca alkaloids” value in the series with MDR cells was “shown to sensitise MDR cells to Vinca alkaloids in vitro and in vivo”.
